Results published in patent US5026701A, “Morpholine compounds, compositions and use” (Adir et Compagnie, priority 1989, dated 1991).

Tests used:
mice [1] = test: Psycho-awakening effect: sodium barbital (270 mg/kg i.p.) induced narcosis duration; type: in vivo; settings: 30 μmols/kg i.p.
Protocol: Male mice are administered sodium barbital by the i.p. route at a dose of 270 mg/kg. The duration of the narcosis so induced is compared between control animals and animals treated beforehand by the i.p. route with the compounds examined.

mice [2] = test: Hypothermia with apomorphine (16 mg/kg i.p.); type: in vivo; settings: 30 minutes before apomorphine 16 mg/kg i.p.
Protocol: The administration of a very strong dose of apomorphine (16 mg/kg i.p.) causes hypothermia of approximately 4° C. by the stimulation of dopaminergic heteroreceptors situated on the noradrenergic neurones. The so-created hypothermia is thus due to the failure of noradrenergic neurotransmission. The facilitating agents administered 30 minutes beforehand counteract this hypothermia.

mice [3] = test: Hexobarbital (75 mg/kg i.p.) induced narcosis duration; type: in vivo
Protocol: This antagonism of barbital-induced narcosis reflects a psycho-awakening effect since no antagonism occurs when narcosis is induced with hexobarbital (75 mg/kg i.p.) (product of Example 2β:+20%; product of Example 1:+26%).

[4] = test system: synaptosomal reuptake of noradrenaline (NAD); test: Synaptosomal reuptake of tritiated noradrenaline in vitro; type: biochemical; settings: 10^-6 M, synaptosomes, versus control preparation
Protocol: This effect was examined in the […] by measuring the synaptosomal reuptake of noradrenaline (NAD). For this, a fraction of synaptosomes is placed in the presence of tritiated NAD with or without previous incubation with the compound examined.
A measurement of the radioactivity in the synaptosomal pellet makes it possible to calculate the quantity of NAD reuptaken naturally by neurone endings. A compound inhibiting the reuptake reduces the radioactivity measured and a percentage inhibition is measured by comparison with a control preparation.

mice [5] = test: Lethal dose test with yohimbine (potentiation of yohimbine 30 mg/kg i.p.), percentage mortality; type: in vivo; settings: 9 μmols/kg i.p., 30 minutes before yohimbine 30 mg/kg i.p.
Protocol: (§1) Male mice are administered yohimbine (α2 antagonist) by the intraperitoneal route at a dose of 30 mg/kg, a non-lethal dose which only causes the occurrence of hyperexcitability symptoms or convulsions. Any compound that facilitates noradrenergic neurotransmission potentiates the releasing effect of the yohimbine and brings about the death of the animals.
(§2) A percentage mortality is thus measured for each group of animals treated 30 minutes beforehand i.p. or 60 minutes beforehand p.o. with the compound examined.

[6] = as above; type: in vivo, mice; settings: mouse, in vivo; yohimbine lethality potentiation, mice; read-out: relationship between the mean effective p.o. and i.p. doses (oral bioavailability)
Protocol: as §1, §2

mice [7] = test: Cerebral protecting effects: acute global hypoxia (barometric depressurization to 160 mbar), cerebral survival time; type: in vivo; settings: 30 minutes before hypoxia; for increase in the survival time: male mice
Protocol: The cerebral survival time taken as the occurrence of the last respiratory gasp is measured in control animals and in animals that have received the compound under examination 30 minutes beforehand by the intraperitoneal route.

mice [8] = test: as above; type: in vivo; settings: 60 minutes before hypoxia

SMILES	change in duration of narcosis with barbital (mice [1]) [%]	inhibiting effect vis-a-vis hypothermia (mice [2]; 3 μmols/kg)	inhibiting effect vis-a-vis hypothermia (mice [2]; 9 μmols/kg)	inhibition of the reuptake of NAD [4] [%]	ratio of mean effective p.o. to i.p. dose [6]	increase in the survival time (mice [7]; 3 μmols/kg i.p.)	increase in the survival time (mice [7]; 9 μmols/kg i.p.)	increase in the survival time (mice [7]; 30 μmols/kg i.p.)	increase in the survival time (mice [7]; 90 μmols/kg i.p.)	other results
Fc1cc2c(c(OCC3CNCCO3)c1)NCCC2 (racemic) [Example 1, R,S-6-fluoro-8-(2-morpholinylmethoxy)-1,2,3,4-tetrahydroquinoline]	-36	-27%	-46%	–	–	–	–	–	–	change in duration of narcosis induced with hexobarbital (mice [3]): +26%
Fc1ccc(OCC2CNCCO2)c2c1CCCN2 (racemic) [Example 2, R,S-5-fluoro-8-(2-morpholinylmethoxy)-1,2,3,4-tetrahydroquinoline]	–	–	-29%	–	–	–	–	–	–	–
c1cc2c(c(OCC3CNCCO3)c1)NCCC2 (racemic) [reference product, R,S-8-[(2-morpholinyl)methoxy]-1,2,3,4-tetrahydroquinoline, reference compound]	-20	no effect	+0.5%	33.6	4.25	+5%	+17%	+42%	+87%	mortality (mice [5]): +20%; minimal effective dose (mice [7]; Mus musculus, ip, read-out: dose from which hypoxia is significantly counteracted (protecting effect obtained)): 9 µmol/kg; increase in the survival time (mice [8]; 40 μmols/kg orally): 31%
CS(=O)(=O)O.Fc1cc2c(c(OC[C@H]3CNCCO3)c1)NCCC2 [Example 1α, R-6-fluoro-8-(2-morpholinylmethoxy)-1,2,3,4-tetrahydroquinoline monomethanesulphonate]	–	–	–	–	3.16	–	+37%	+55%	+114%	increase in the survival time (mice [8]; 9 μmols/kg orally): 37%
Fc1cc2c(c(OC[C@@H]3CNCCO3)c1)NCCC2 [Example 1β, S-6-fluoro-8-(2-morpholinylmethoxy)-1,2,3,4-tetrahydroquinoline monomethanesulphonate]	–	–	–	-55.4	–	+21%	+42%	+62%	+108%	–
Fc1ccc(OC[C@H]2CNCCO2)c2c1CCCN2 [Example 2α, R-5-fluoro-8-(2-morpholinylmethoxy)-1,2,3,4-tetrahydroquinoline monomethanesulphonate]	–	–	–	–	1.77	–	–	–	–	–
Fc1ccc(OC[C@@H]2CNCCO2)c2c1CCCN2 [Example 2β, S-5-fluoro-8-(2-morpholinylmethoxy)-1,2,3,4-tetrahydroquinoline monomethanesulphonate]	40	-16%	-21%	-58.9	–	21%	–	–	–	change in duration of narcosis induced with hexobarbital (mice [3]): +20%
